Results taken from paper PMC3477139 (PLoS ONE, 2012).
Values belong to the compound of their own block, whether it stands above or below them.

Assays:
human GLP-1R [1] = target: T1, human GLP-1R (Homo sapiens, UniProt P43220); assay: ERK activation (phospho-ERK Western blot) in HEK-GLP-1R cells; assay type: cell-based; details: GLP-1 9–36 amide (1 µM) + compound 2 (0.1 µM to 1 µM), 5 min; n = 3
T1 construct: expressed in transfected cells; vector pcDNA5/FRT
Experimental: (§1) Concentration-response curves were fitted using GraphPad Prism (GraphPad Software Inc., CA) using a standard four parameter logistic equation. All data are representative of n≥3 or are presented as mean+/±s.e.m., where n = 3 unless otherwise stated. Statistical analysis was by oneway ANOVA and where P<0.05, followed by Bonferroni's or Dunnett's multiple range test as indicated. Alternatively analysis was performed by Student's t-test. Where potency estimates are given these are pEC50 values (−log10 of the molar concentration giving 50% of the maximal response).

[2] = in vivo, cited from earlier work
Text: (§2) Such proteolysis is thought to remove biological activity.

human GLP-1R [3] = target: T1, human GLP-1R; assay: cAMP generation in intact HEK-GLP-1R cells; assay type: cell-based; details: IBMX; for EC50: pEC50 of the GLP-1 9–36 amide response (cAMP), 15 min, mean±s.e.m., n = 4
Experimental: (§3) HEK-Flp-In cells with stable recombinant expression of the human GLP-1R (HEK-GLP-1R) were cultured in DMEM with high glucose supplemented with 10% FBS, 100 µg/ml streptomycin and 100 units/ml penicillin sulphate. These cells were originally generated by transfection of HEK-Flp-In cells (Invitrogen: Paisley, U.K.) with pcDNA5/FRT containing the human GLP-1R. […] INS-1E cells were kindly provided by Prof. C.B. Wollheim of the University of Geneva, Switzerland [19]. These cells were used between passages 65–90 and cultured in RPMI media containing 11.1 mM glucose, 5% heat-inactivated FBS, 100 µg/ml streptomycin, 100 units/ml penicillin sulphate, 100 units/ml neomycin, 50 µM β-mercaptoethanol, 10 mM HEPES and 1 mM sodium pyruvate. All cells were cultured at 37°C in a 5% CO2 humidified atmosphere and passaged at confluence.
(§4) Confluent monolayers of HEK-GLP-1R cells cultured in 24-well plates pre-coated with poly-D-lysine (0.1% w/v) where washed twice with 0.5 ml Krebs-HEPES buffer (KHB, composition: 10 mM HEPES; 4.2 mM NaHCO3; 11.7 mM D-glucose; 1.18 mM MgSO4·7H2O; 1.18 mM KH2PO4; 4.69 mM KCl; 118 mM NaCl; 1.3 mM CaCl2·2H2O; pH 7.4) containing 0.1% (w/v) BSA (KHB-BSA) before incubation (10 min, 37°C) in 360 µl KHB-BSA containing 500 µM isobutylmethylxanthine (IBMX). Ligands or vehicle control (40 µl) were added and reactions terminated after the appropriate times by replacement of the aqueous phase with ice-cold 0.5 M trichloroacetic acid. INS-1E cells grown to confluence in 24-well plates were treated similarly with the exception that after washing in KHB, cells were incubated in 200 µl KHB-BSA containing 1.4 mM glucose without IBMX for 2 h followed by challenge with ligands (or vehicle) for 15 min at 37°C in 400 µl KHB-BSA, in the presence of 10 mM glucose and 500 µM IBMX. Reactions were terminated as above.
(§5) The cAMP was extracted from either intact cell or membrane preparations using a method identical to that for extraction of Ins(1,4,5)P3 [22]. Levels of cAMP were then determined by a competitive radioreceptor assay using binding protein purified from bovine adrenal glands and related to cellular protein assessed by Bradford assay.
as §1

[4] = target: T2, GLP-1R (native, rat insulinoma cell line INS-1E) (Rattus norvegicus, UniProt P32301); assay: cAMP generation in INS-1E cells; assay type: cell-based; details: INS-1E, read-out: Emax as % of that evoked by GLP-1 7–36 amide, cAMP (INS-1E), in the presence of compound 2
T2 construct: the rat insulinoma cell line, INS-1E, with native expression of the GLP-1R; endogenous in cells; host or cells: INS-1E rat insulinoma cells (gift of Prof. C.B. Wollheim)
T2 sequence (P32301 22-463): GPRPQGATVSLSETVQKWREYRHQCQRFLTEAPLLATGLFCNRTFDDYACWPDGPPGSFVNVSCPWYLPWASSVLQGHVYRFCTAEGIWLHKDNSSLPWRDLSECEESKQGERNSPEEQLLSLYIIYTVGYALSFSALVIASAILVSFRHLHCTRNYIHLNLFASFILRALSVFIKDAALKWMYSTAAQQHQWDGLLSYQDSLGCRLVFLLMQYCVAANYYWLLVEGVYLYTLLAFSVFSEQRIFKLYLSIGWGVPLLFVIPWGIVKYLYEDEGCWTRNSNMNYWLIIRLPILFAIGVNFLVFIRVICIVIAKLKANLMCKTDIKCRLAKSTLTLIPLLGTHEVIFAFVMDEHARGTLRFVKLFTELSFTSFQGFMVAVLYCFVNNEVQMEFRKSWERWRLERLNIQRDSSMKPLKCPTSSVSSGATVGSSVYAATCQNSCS
Experimental: as §3, §4, §5, §1

human GLP-1R [5] = target: T1, human GLP-1R; assay: cAMP generation by membranes from HEK-GLP-1R cells; assay type: biochemical; details: read-out: Emax as % of the GLP-1 7–36 amide response, cAMP (membranes); 5 min, 30°C, IBMX
Experimental: as §5, §1

adenylyl cyclase = assay: cAMP generation by direct activation of adenylyl cyclase with forskolin; assay type: biochemical; details: membranes from HEK-GLP-1R cells, 5 min, 30°C, IBMX
Experimental: Generation of cAMP by cell membranes was determined based on previously published methods, [21]. Membranes were prepared from confluent cell monolayers grown in 80 cm^2 flasks. Cells were washed with 5 ml HBS (154 mM NaCl, 10 mM HEPES, pH 7.4, 37°C), detached using harvesting buffer (154 mM NaCl, 10 mM HEPES, 5.4 mM EDTA, pH 7.4, 37°C) and collected by centrifugation (200 g, 2 min, 4°C). The cell pellet was resuspended in 1 ml of homogenization buffer (10 mM HEPES, 10 mM EDTA, pH 7.4) and sonicated (Sonifier Ultrasonic Cell Disruptor; Branson, CT) at 30% of the maximal amplitude for 3×5 s at ∼30 s intervals before centrifugation (30,000 g, 4°C, 10 min). After removal of the supernatant, pellets were collected in resuspension buffer (10 mM HEPES, 0.1 mM EDTA, pH 7.4), protein concentration adjusted to 1 mg/ml and stored in aliquots at −80°C until assay. Generation of cAMP was determined in 100 µl containing: 10 mM HEPES, 12 mM MgCl2, 60 mM NaCl, 1.2 mM EDTA, 1.2% w/v BSA, 5% DMSO, 480 µM ATP, 2 mM IBMX, 10 µM GTP, 20 µg membrane and ligands as indicated. […]
as §5

β2-adrenoceptors = assay: cAMP accumulation via β2-adrenoceptors in HEK-GLP-1R cells; assay type: cell-based; details: isoproterenol 100 µM, IBMX, 5% DMSO
Experimental: Ligands or vehicle control (40 µl) were added and reactions terminated after the appropriate times by replacement of the aqueous phase with ice-cold 0.5 M trichloroacetic acid. […] Reactions were terminated as above.
as §5
All data are mean±/+s.e.m., n = 3–4, *** P<0.001 and ** P<0.01 by Bonferroni's multiple range test. For clarity only differences between ‘numerical’ and ‘co-addition’ conditions are shown.

GLP-1R [6] = details: ref [9]; cited from earlier work
Text: as §2

[7] = target: GLP-1 7-36 amide 7-36 (Homo sapiens) (UniProt P01275); details: cited from earlier work
GLP-1R [8] = details: intact GLP-1; ref [16], [18], [30], [40]; cited from earlier work
type 2 diabetes = details: exogenous GLP-1; ref [11]; cited from earlier work
Text: GLP-1 is generated within intestinal L-cells by the a ...

T1 sequence (P43220 24-463): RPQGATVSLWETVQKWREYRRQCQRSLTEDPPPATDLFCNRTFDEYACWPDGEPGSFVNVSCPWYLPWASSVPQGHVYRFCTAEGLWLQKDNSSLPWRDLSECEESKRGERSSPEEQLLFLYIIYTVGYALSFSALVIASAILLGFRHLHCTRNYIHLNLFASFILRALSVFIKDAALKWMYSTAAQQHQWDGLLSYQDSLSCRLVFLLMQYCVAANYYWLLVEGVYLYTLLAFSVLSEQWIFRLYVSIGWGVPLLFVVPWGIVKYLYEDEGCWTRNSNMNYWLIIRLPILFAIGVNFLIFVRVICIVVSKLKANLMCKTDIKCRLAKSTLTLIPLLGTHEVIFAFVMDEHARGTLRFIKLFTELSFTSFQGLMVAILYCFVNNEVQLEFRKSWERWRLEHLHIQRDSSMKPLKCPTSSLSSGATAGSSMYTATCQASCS
Chain of GLP-1R (P43220 24-463): as above
Chain of GLP-1 7-36 amide 7-36 (Homo sapiens) (P01275 7-36): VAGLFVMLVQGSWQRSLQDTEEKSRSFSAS

ERK activation in excess of the sum of the responses to the ligands alone (human GLP-1R [1]): 45–69%
EC50 (human GLP-1R [3]; compound 2: 0 µM): 309 nM
EC50 (human GLP-1R [3]; compound 2: 0.03 µM): 85.1 nM
EC50 (human GLP-1R [3]; compound 2: 0.1 µM, ** P<0.01 versus 0 µM compound 2): 32.4 nM
EC50 (human GLP-1R [3]; compound 2: 0.3 µM, *** P<0.001 versus 0 µM compound 2): 8.91 nM
EC50 (human GLP-1R [3]; compound 2: 1.0 µM, *** P<0.001 versus 0 µM compound 2): 5.25 nM
EC50 (human GLP-1R [3]; compound 2: 3.0 µM, *** P<0.001 versus 0 µM compound 2): 3.89 nM
Emax (human GLP-1R [3]; read-out: Emax as % of the GLP-1 7–36 amide response, cAMP, no pretreatment, 15 min challenge): 18%
Emax [4]: ~50%
Emax (human GLP-1R [5]): 23%
Compound: CC[C@H](C)[C@H](NC(=O)[C@H](Cc1ccccc1)NC(=O)[C@H](CCC(=O)O)NC(=O)[C@H](CCCCN)NC(=O)[C@H](C)NC(=O)[C@H](C)NC(=O)[C@H](CCC(N)=O)NC(=O)CNC(=O)[C@H](CCC(=O)O)NC(=O)[C@H](CC(C)C)NC(=O)[C@H](Cc1ccc(O)cc1)NC(=O)[C@H](CO)NC(=O)[C@H](CO)NC(=O)[C@@H](NC(=O)[C@H](CC(=O)O)NC(=O)[C@H](CO)NC(=O)[C@@H](NC(=O)[C@H](Cc1ccccc1)NC(=O)[C@@H](NC(=O)CNC(=O)[C@@H](N)CCC(=O)O)[C@@H](C)O)[C@@H](C)O)C(C)C)C(=O)N[C@@H](C)C(=O)N[C@@H](Cc1c[nH]c2ccccc12)C(=O)N[C@@H](CC(C)C)C(=O)N[C@H](C(=O)N[C@@H](CCCCN)C(=O)NCC(=O)N[C@@H](CCCNC(=N)N)C(N)=O)C(C)C [GLP-1 9–36 amide, Glucagon-like peptide-1 9–36 amide]
peak plasma level, oral glucose tolerance test ([2]; po): ~60 pM

cAMP generation by forskolin (in words) (adenylyl cyclase): robustly increased cAMP generation
Compound: C=C[C@@]1(C)CC(=O)[C@]2(O)[C@@]3(C)[C@@H](O)CCC(C)(C)[C@@H]3[C@H](O)[C@H](OC(C)=O)[C@@]2(C)O1 [forskolin]

Compound: CC(C)NCC(O)c1ccc(O)c(O)c1 (stereo not shown) [isoproterenol]
cAMP accumulation (in words) (β2-adrenoceptors): stimulation of cAMP accumulation

Compound: GLP-1 7–37: generated from proglucagon by prohormone convertase 1/3
relative potency at the GLP-1R (GLP-1R [6]): essentially equipotent
fasting plasma concentration [2]: < 10 pM
plasma concentration following a meal [2]: ~10 pM

Compound: GLP-1R (from UniProt P43220)
Kd [7]: 1 nM

Compound: Glucagon-like peptide-1 [GLP-1]
affinity at the GLP-1R (GLP-1R [8]): nanomolar to sub-nanomolar affinity
effect on insulin secretion and hyperglycaemia in type 2 diabetes (type 2 diabetes): potentiates glucose-dependent insulin secretion and can normalize hyperglycaemia in type 2 diabetes
